One may read the IC50 as the concentration that gives 50% inhibition. Lower therefore signals inhibition by little substance. The EC50 is the concentration needed to bring the measured effect to its halfway point. The low end stands for an effect from little substance, the high end for a need for much substance.

Common to all, as to type: cell-based
For assay [1], the system named is NCI-H810 human lung cancer cells. Kind of assay: CellTiter-Glo luminescent cell viability assay, NCI-H810 cells (same method). As to the method: (§1) In the examples below, the product sources for the NCI-H524 non-small cell lung cancer cells, the NCI-H446 small-cell lung cancer cells, the SNU-449 human hepatoma cells, and the NCI-H810 human lung cancer cells, are as follows: c) The NCI-H524 96 well cell plates and the NCI-H446 96-well cell plates prepared in step 1 were removed from the incubator, and 10 μl of the cell culture media (10× final concentration) with varying drug concentrations as described in b) above was added to the NCI-H524 96-well cell culture and the NCI-H446 96-well cell culture plate row-by-row as shown in FIG. 1. It was placed into a CO2 incubator at 37° C. for 72 hours, obtaining the NCI-H524 96-well drug screening plate and the NCI-H446 96-well drug screening plate. • a) The CellTiter-Glo reagent buffer was thawed before using and stabilized to room temperature for use. • b) The CellTiter-Glo reagent frozen substrate was thawed before using and stabilized to room temperature for use. • c) 100 ml of stabilized CellTiter-Glo buffer was added to the container with CellTiter-Glo reagent frozen substrate to adequately resuspend it to form an enzyme/substrate mixture, also referred to as the CellTiter-Glo assay reagent. • d) It was gently mixed and vortexed and inverted multiple times to achieve a uniform solution. In general, the CellTiter-Glo substrate reagent will adequately dissolve within 1 minute. […]
In general terms: In ATP-based viability assays light output follows the ATP content of the culture.

Assay [2] has as its system SNU-449 human hepatoma cells. Description: CellTiter-Glo luminescent cell viability assay, SNU-449 cells (same method). As to the method: as §1
The test system of assay [3] is NCI-H446 small-cell lung cancer cells. Description: CellTiter-Glo luminescent cell viability assay, NCI-H446 drug screening plate. As to conditions: for IC50: NCI-H446 cells, CellTiter-Glo. Here is the method: (§2) In example 1, CELLTITER-GLO was used to test nicardipine against non-small cell lung cancer. n) NCI-H524 cells and NCI-H446 cells were handled as described above, and NCI-H524 96-well cell culture plates and NCI-H446 96-well cell culture plates were obtained, respectively. The complete medium for NCI-H446 cells was RPMI-1640 (a live product), Cat #A1049101, with a cells/well density of 8000. a) DMSO was used to dilute the analyte nicardipine to 20 mM for use. b) 79 μL of the 20 mM analyte prepared in step a) was added to the first well in the first row of the dilution plate, and then 54 μL of DMSO solution was added to the second through ninth wells of the first row. 25 μL of solution was aspirated from the first to the second well, and after mixing well 25 μL of solution was aspirated from the second to the third well, and this was repeated until the 9th well in order to ensure that 3.16 dilution of the medication would be carried out one-by-one. b) 95 μl of cell-specific complete medium was added to the working plate, each medication to 9 wells. […] Testing • a) Before testing, the NCI-H524 96-well drug screening plate and the NCI-H446 96-well drug screening plate described in 3 above were stabilized to room temperature for 20-30 minutes. • b) An inverted microscope was used to observe the conditions of each group of cells in the culture plate and their death patterns, and any abnormal conditions were noted and retested. • c) 100 μl of CellTiter-Glo reagent (prepared as described in 1 above) was added to all drug screening plates and mixed evenly. • d) It was thoroughly oscillated in a 96-well microplate oscillator for 2 minutes to allow the cells to undergo full lysis. • e) It was stored away from light at room temperature for 15 minutes before carrying out luminescent signal detection to ensure signal stability. • f) An EnSpire multi-function plate reader was used at 570 nm to read the luminescent signals. • g) Data was processed and analyzed.

Assay [4] concerns NCI-H524 non-small cell lung cancer cells. Kind of assay: CellTiter-Glo luminescent cell viability assay, NCI-H524 drug screening plate. The note with it: for IC50: NCI-H524 cells, CellTiter-Glo. As to the method: as §2, with “for NCI-H524” for “for NCI-H446”, “of 16000.” for “of 8000.”

For `COC(=O)C1=C(C)NC(C)=C(C(=O)OCCN(C)Cc2ccccc2)C1c1cccc([N+](=O)[O-])c1` (centres unmarked) [nicardipine], the IC50 was not below 100 µM in assay [1]; not below 100 µM in assay [2]; 18.4 µM in assay [3] (Homo sapiens, NCI-H446, 72 h); 18.4 µM in assay [3] (72 hours); 18.6 µM in assay [4] (Homo sapiens, NCI-H524, 72 h); 18.6 µM in assay [4] (72 hours). The EC50 in assay [3] (Homo sapiens, FIG. 3, nicardipine sensitivity to small cell lung cancer (NCI-H446), 72 hours) worked out at 18 µM; in assay [4] (Homo sapiens, FIG. 2, nicardipine sensitivity to non-small cell lung cancer (NCI-H524), 72 hours), 20.3 µM.

These data come from US12427139B2, “Applications for nicardipine in preparing anti-lung cancer products” (SHANGHAI JIAO TONG UNIVERSITY, priority 2015, dated 2025).
